The results in this text go back to publication PMC7956620 (Molecules, 2021).

Numbering of substitutions follows the chain as printed.

What all share (format): cell-based
Holding throughout (conditions): 100 µM chanoclavine, read-out: Inhibition Percentage (%)

The target of test [1] is T1, 5-HT3A receptor I139A mutant (Homo sapiens, UniProt P46098, I134A/I139A).
T1 construct: host or cells: Xenopus laevis oocytes injected with in vitro transcribed mRNA
T1 sequence (P46098 24-478 I134A/I139A): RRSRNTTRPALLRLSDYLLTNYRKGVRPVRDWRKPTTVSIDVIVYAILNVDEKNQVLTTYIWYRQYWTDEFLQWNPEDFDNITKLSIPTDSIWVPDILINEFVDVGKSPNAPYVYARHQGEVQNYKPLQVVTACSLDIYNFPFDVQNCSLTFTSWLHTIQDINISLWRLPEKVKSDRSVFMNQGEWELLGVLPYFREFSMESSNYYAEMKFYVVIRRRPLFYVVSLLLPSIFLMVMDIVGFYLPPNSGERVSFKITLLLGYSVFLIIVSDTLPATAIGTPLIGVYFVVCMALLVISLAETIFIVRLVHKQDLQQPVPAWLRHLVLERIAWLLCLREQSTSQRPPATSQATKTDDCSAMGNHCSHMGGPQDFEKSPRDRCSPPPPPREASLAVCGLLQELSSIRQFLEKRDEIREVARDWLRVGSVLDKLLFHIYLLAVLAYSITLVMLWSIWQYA
Kind of test: two-electrode voltage clamp, I139A mutant receptor in Xenopus oocytes. How it is done: (§1) The site-directed mutation of one or two amino acids was performed using sense and antisense primers and Pfu polymerase (QuickChange Site-Directed Mutagenesis Kit; Agilent, Santa Clara, CA, USA) and amplified by polymerase chain reaction (PCR) to increase the target domain. After removing the existing methylated cDNA using Dpn Ⅰ, the PCR products were transformed into Escherichia coli strain DH5α. The cDNA of the 5-HT3A receptor was linearized by Xho Ⅰ at the end of the multi-cloning site, followed by transcription using T7 polymerase and a transcription kit (mMESSAGE mMACHINE T7 Transcription Kit; Thermo Fisher Scientific, Waltham, MA, USA). […]
(§2) To isolate oocytes, female Xenopus laevis were put into a container filled with ice and left for about one hour. […] When the Xenopus oocytes were ready for injection, 50 ng of mRNA was injected with a nanoliter injector (Drummond Scientific, Vernon Hills, IL, USA). […]
(§3) The oocytes in which mRNA was expressed during the incubation period allowed for the estimation of channel or receptor properties for observing drug and ligand potential interactions using a two-electrode voltage clamp (OC-725C; Warner Instruments, Hamden, CT, USA) and Digidata (1322A; Molecular Devices, Sunnyvale, CA, USA). […] The voltage and current electrodes were filled with 3 M KCl (0.3–0.7 MΩ) and analyzed at a −80 mV holding potential. […]
(In general: Two-electrode voltage clamp holds a large cell at a set potential and records current.)

In test [2] the target is T2, 5-HT3A receptor R196A mutant (Homo sapiens, UniProt P46098, R191A).
T2 construct: host or cells: Xenopus laevis oocytes injected with in vitro transcribed mRNA
T2 sequence (P46098 24-478 R191A): T1 sequence (P46098 24-478 I134A/I139A) with A111I, A116I, R168A
Kind of test: two-electrode voltage clamp, R196A mutant receptor in Xenopus oocytes. As for the experimental part: as §1, §2, §3

In test [3] the target is T3, 5-HT3A receptor F130A mutant (Homo sapiens, UniProt P46098, F125A).
T3 construct: host or cells: Xenopus laevis oocytes injected with in vitro transcribed mRNA
T3 sequence (P46098 24-478 F125A): T1 sequence (P46098 24-478 I134A/I139A) with F102A, A111I, A116I
Kind of test: two-electrode voltage clamp, F130A mutant receptor in Xenopus oocytes. As for the experimental part:
as §1, §2, §3

As a reminder, the inhibition is the percentage by which the read-out fell short of the control. With `CN[C@@H]1Cc2c[nH]c3cccc(c23)[C@H]1/C=C(\C)CO` [chanoclavine], the inhibition at 100 µM in test [1] was 92.8 ± 4.9%; in test [2] it was 82.1 ± 2.5%; in test [3] it was 9.36 ± 4.3%.
